≈ marks a conversion by molar mass, not a printed value.

The target of one assay is ADC-11 (Acinetobacter baumannii, UniProt D6NSM8). As to the kind of experiment: Activity of Acinetobacter baumannii ADC-11 beta-lactamase.
Assay [1] concerns Acinetobacter baumannii. Description: Ratio of Kcat to Ki for Acinetobacter baumannii ADC-33 beta-lactamase to Kcat to Ki for Acinetobacter baumannii ADC-11 beta-lactamase.
Assay [2] concerns Escherichia coli. Description: Antimicrobial activity against Escherichia coli TOP10 harboring pADC-33 plasmid carrying entire blaAmpC gene with alanine residue deletion at 215 position and R210P substitution by Etest method. In kind it is functional.
Assay [3] has as its system Acinetobacter baumannii. As to the kind of experiment: Antimicrobial activity against Acinetobacter baumannii AYE expressing VEB-1 gene by Etest method. The format is functional.
Assay [4] relates to Escherichia coli. As to the kind of experiment: Antimicrobial activity against Escherichia coli TOP10 harboring pTOPO plasmid by Etest method. The format is functional.
The test system of assay [5] is Acinetobacter baumannii. As to the kind of experiment: Antimicrobial activity against Acinetobacter baumannii KI by Etest method. In kind it is functional.
In assay [6] the test system is Escherichia coli. Description: Antimicrobial activity against Escherichia coli TOP10 harboring pADC-33 plasmid by Etest method. In kind it is functional.
The next assay addresses Beta-lactamase ADC-33 (Acinetobacter baumannii, UniProt B2ZTR6). As to the kind of experiment: Activity of Acinetobacter baumannii ADC-33 beta-lactamase.
For assay [7], the system named is Escherichia coli. As to the kind of experiment: Antimicrobial activity against Escherichia coli TOP10 harboring pADC-33 plasmid with entire blaAmpC gene by Etest method. The format is functional.
The test system of assay [8] is Escherichia coli. Description: Antimicrobial activity against Escherichia coli TOP10 harboring pADC-11 plasmid carrying entire blaAmpC gene with alanine residue insertion at 215 position by Etest method. The format is functional.
The subject of assay [9] is Escherichia coli. Description: Antimicrobial activity against Escherichia coli TOP10 harboring pADC-11 plasmid carrying entire blaAmpC gene with alanine residue insertion at 215 position and R210P substitution by Etest method. In kind it is functional.
Assay [10] deals with Escherichia coli. Description: Antimicrobial activity against Escherichia coli TOP10 harboring pADC-11 plasmid by Etest method. The format is functional.
In assay [11] the test system is Acinetobacter baumannii. Description: Antimicrobial activity against Acinetobacter baumannii CIP70.10 by Etest method. In kind it is functional.
The test system of assay [12] is Escherichia coli. As to the kind of experiment: Antimicrobial activity against Escherichia coli TOP10 harboring pADC-50 plasmid by Etest method. In kind it is functional.
For assay [13], the system named is Escherichia coli. Description: Antimicrobial activity against Escherichia coli TOP10 harboring pADC-33 plasmid with entire blaAmpC gene with alanine residue deletion at 215 position by Etest method. In kind it is functional.
In assay [14] the test system is Escherichia coli. Description: Antimicrobial activity against Escherichia coli TOP10 harboring pADC-11 plasmid with entire blaAmpC gene by Etest method. In kind it is functional.
Assay [15] relates to Acinetobacter baumannii. As to the kind of experiment: Antimicrobial activity against Acinetobacter baumannii expressing ESAC beta-lactamase by Etest method. The format is functional.
Assay [16] concerns Acinetobacter baumannii. Description: Ratio of Kcat to Km for Acinetobacter baumannii ADC-33 beta-lactamase to Kcat to Km for Acinetobacter baumannii ADC-11 beta-lactamase.
Assay [17] deals with Acinetobacter baumannii. As to the kind of experiment: Antimicrobial activity against Acinetobacter baumannii beta-lactamase by Etest method. In kind it is functional.

One may read the Ki as the dissociation constant of the complex between target and ligand, obtained from inhibition or displacement. A word on the kcat/Km: it is the second-order rate constant that governs catalysis at low substrate concentration. Broadly, the MIC is the lowest concentration that inhibits growth of the organism. A high value points to a less susceptible organism. Turning to `CO/N=C(\C(=O)N[C@@H]1C(=O)N2C(C(=O)O)=C(COC(C)=O)CS[C@H]12)c1csc(N)n1` [CEFOTAXIME], the figures for the Ki at ADC-11 and on Beta-lactamase ADC-33 were 2.5 µM and 0.5 µM, respectively. In addition, in the assay with Acinetobacter baumannii [1], the kcat/Km was determined as 2e+07 M⁻¹ s⁻¹. Further, the MIC in the assay with Escherichia coli [2] was 8 mg/L (≈ 17.6 µM); in the assay on Acinetobacter baumannii [3], more than 256 mg/L; in the assay on Escherichia coli [4], 0.047 mg/L (≈ 0.103 µM); with Acinetobacter baumannii [5], more than 256 mg/L; in the assay on Escherichia coli [6], 128 mg/L (≈ 281 µM); in the assay with Escherichia coli [7] it was more than 256 mg/L. Besides, the MIC with Escherichia coli [8] was 256 mg/L (≈ 562 µM); against Escherichia coli [9], more than 256 mg/L; with Escherichia coli [10], 0.5 mg/L (≈ 1.1 µM); in the assay on Acinetobacter baumannii [11], 8 mg/L (≈ 17.6 µM); in the assay with Escherichia coli [12], 0.5 mg/L (≈ 1.1 µM); against Escherichia coli [13], 16 mg/L (≈ 35.1 µM). Besides, it took 8 mg/L (≈ 17.6 µM) to inhibit growth against Escherichia coli [14] (MIC).

For `CO[C@@]1(NC(=O)Cc2cccs2)C(=O)N2C(C(=O)O)=C(COC(N)=O)CS[C@@H]21` [CEFOXITIN], the Ki on ADC-11 amounted to 0.5 µM; on Beta-lactamase ADC-33, 0.1 µM. Also, the kcat/Km in the assay on Acinetobacter baumannii [1] came out at 1e+06 M⁻¹ s⁻¹.

Turning to `CO/N=C(\C(=O)N[C@@H]1C(=O)N2C(C(=O)[O-])=C(C[n+]3cccc4c3CCC4)CS[C@H]12)c1csc(N)n1` [CEFPIROME], the MIC against Escherichia coli [2] is 0.125 mg/L (≈ 0.243 µM); with Acinetobacter baumannii [3], more than 256 mg/L; in the assay with Escherichia coli [4] it was 0.023 mg/L (≈ 0.0447 µM); in the assay with Acinetobacter baumannii [5], more than 256 mg/L; against Escherichia coli [6], 0.5 mg/L (≈ 0.972 µM); with Escherichia coli [7], 4 mg/L (≈ 7.77 µM). Also, the MIC with Escherichia coli [8] amounted to 2 mg/L (≈ 3.89 µM); in the assay on Acinetobacter baumannii [15], 128 mg/L (≈ 249 µM); in the assay with Escherichia coli [9], 8 mg/L (≈ 15.5 µM); against Escherichia coli [10] it was 0.032 mg/L (≈ 0.0622 µM); against Acinetobacter baumannii [17], 4 mg/L (≈ 7.77 µM); in the assay with Acinetobacter baumannii [11], 2 mg/L (≈ 3.89 µM). For the same molecule, the MIC with Escherichia coli [12] came to 0.047 mg/L (≈ 0.0913 µM); against Escherichia coli [13] it was 0.5 mg/L (≈ 0.972 µM); with Escherichia coli [14] it was 0.125 mg/L (≈ 0.243 µM). Moreover, the kcat/Km in the assay with Acinetobacter baumannii [16] was determined as 1.25e+07 M⁻¹ s⁻¹.

In the case of `CC(C)(O/N=C(\C(=O)N[C@@H]1C(=O)N2C(C(=O)[O-])=C(C[n+]3ccccc3)CS[C@H]12)c1csc(N)n1)C(=O)O` [CEFTAZIDIME], the MIC in the assay on Escherichia coli [2] is 8 mg/L (≈ 14.6 µM); with Acinetobacter baumannii [3], more than 256 mg/L; in the assay on Escherichia coli [4], 0.125 mg/L (≈ 0.229 µM); against Acinetobacter baumannii [5] it was more than 256 mg/L; in the assay with Escherichia coli [6], more than 256 mg/L; in the assay with Escherichia coli [7], more than 256 mg/L. Also, the MIC with Escherichia coli [8] was more than 256 mg/L; in the assay on Escherichia coli [9], more than 256 mg/L; in the assay on Escherichia coli [10], 0.5 mg/L (≈ 0.915 µM); against Acinetobacter baumannii [11], 2 mg/L (≈ 3.66 µM); with Escherichia coli [12], 0.5 mg/L (≈ 0.915 µM); against Escherichia coli [13] it was 16 mg/L (≈ 29.3 µM). This molecule also displayed an MIC with Escherichia coli [14] of 8 mg/L (≈ 14.6 µM). In addition, the catalytic efficiency (kcat/Km) in the assay on Acinetobacter baumannii [16] was determined as 1.5e+08 M⁻¹ s⁻¹.

Turning to `CO/N=C(\C(=O)N[C@@H]1C(=O)N2C(C(=O)O)=C(COC(N)=O)CS[C@H]12)c1ccco1` [CEFUROXIME], the MIC is more than 256 mg/L with Escherichia coli [2]; more than 256 mg/L with Acinetobacter baumannii [3]; 2 mg/L (≈ 4.71 µM) against Escherichia coli [4]; more than 256 mg/L against Acinetobacter baumannii [5]; more than 256 mg/L in the assay with Escherichia coli [6]; more than 256 mg/L in the assay with Escherichia coli [7]. Besides, the MIC was more than 256 mg/L in the assay with Escherichia coli [8]; more than 256 mg/L against Escherichia coli [9]; 128 mg/L (≈ 302 µM) against Escherichia coli [10]; 32 mg/L (≈ 75.4 µM) against Acinetobacter baumannii [11]; 64 mg/L (≈ 151 µM) in the assay with Escherichia coli [12]; more than 256 mg/L against Escherichia coli [13]. This molecule displayed a minimum inhibitory concentration (MIC) with Escherichia coli [14] of more than 256 mg/L.

For the molecule `C[C@@H](O)[C@H]1C(=O)N2C(C(=O)O)=C(SCCNC=N)C[C@H]12` [IMIPENEM ANHYDROUS], the MIC with Escherichia coli [2] turned out to be 0.25 mg/L (≈ 0.835 µM); with Acinetobacter baumannii [3], 1 mg/L (≈ 3.34 µM); in the assay on Escherichia coli [4], 0.125 mg/L (≈ 0.418 µM); with Acinetobacter baumannii [5], 2 mg/L (≈ 6.68 µM); in the assay with Escherichia coli [6] it was 0.25 mg/L (≈ 0.835 µM); with Escherichia coli [7], 0.5 mg/L (≈ 1.67 µM). Besides, the MIC turned out to be 0.38 mg/L (≈ 1.27 µM) in the assay on Escherichia coli [8]; 0.19 mg/L (≈ 0.635 µM) against Escherichia coli [10]; 0.25 mg/L (≈ 0.835 µM) in the assay on Acinetobacter baumannii [11]; 0.5 mg/L (≈ 1.67 µM) with Escherichia coli [13]; 0.38 mg/L (≈ 1.27 µM) with Escherichia coli [14]. Besides, the kcat/Km with Acinetobacter baumannii [16] amounted to 800000 M⁻¹ s⁻¹.

In the case of `C[C@@H](O)[C@H]1C(=O)N2C(C(=O)O)=C(S[C@@H]3CN[C@H](C(=O)N(C)C)C3)[C@H](C)[C@H]12` [MEROPENEM], the minimum inhibitory concentration (MIC) came out at 0.032 mg/L (≈ 0.0834 µM) against Escherichia coli [2]; 1 mg/L (≈ 2.61 µM) in the assay on Acinetobacter baumannii [3]; 0.023 mg/L (≈ 0.06 µM) against Escherichia coli [4]; 2 mg/L (≈ 5.22 µM) with Acinetobacter baumannii [5]; 0.023 mg/L (≈ 0.06 µM) with Escherichia coli [6]; 0.032 mg/L (≈ 0.0834 µM) against Escherichia coli [7]. The MIC against Escherichia coli [8] worked out at 0.032 mg/L (≈ 0.0834 µM); against Escherichia coli [9] it was 0.032 mg/L (≈ 0.0834 µM); in the assay with Escherichia coli [10], 0.023 mg/L (≈ 0.06 µM); in the assay with Acinetobacter baumannii [11] it was 0.25 mg/L (≈ 0.652 µM); in the assay with Escherichia coli [12], 0.023 mg/L (≈ 0.06 µM); with Escherichia coli [13] it was 0.032 mg/L (≈ 0.0834 µM). In the assay with Escherichia coli [14], the MIC was determined as 0.032 mg/L (≈ 0.0834 µM).

The values are drawn from ChEMBL document CHEMBL1649315, “Extended-spectrum cephalosporinase in Acinetobacter baumannii” (Antimicrob Agents Chemother, 2010).
